Where two headings read alike, the source gives them in different places.
Key:
[1] = tested on: HCV replicon cells Huh 9B (genotype 1b); experiment: 1b Replicon Assay (luciferase readout); type: cell-based; conditions: Hepatitis C virus, Huh 9B replicon cells, 72 h, luciferase activity
[2] = tested on: HCV genotype 1a replicon cells Htat2ANeo; experiment: 1a Replicon Assay (cell-based anti-NS5a ELISA); conditions: Hepatitis C virus, 72 h
Procedure, shortened: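 HCV 1a Htat2ANeo replicon cells (Et2AN control cells) exposed to compound for 72 h at 37° C without G418/blasticidin. NS5a quantified by cell-based ELISA (anti-NS5a, HRP/OPD, A490); IC50 from percentage reduction versus untreated control. Cytotoxicity TD50 by Cell Titre Blue fluorescence (ex 570/em 590 nm) versus DMSO controls.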

[3] = read-out: pIC50 1b Replicon (converted)
[4] = read-out: pIC50 1a Replicon (converted)

Compound	IC50 ([1]; read-out: HCV IC50 1b Replicon) [nM]	IC50 [1, 3] [nM]	IC50 ([2]; read-out: HCV IC50 Elisa 1a) [nM]	IC50 [2, 4] [nM]
CC(C)(C)OC(=O)N[C@@H](C(=O)N1CCC[C@H]1c1ncc(-c2ccc(-c3ccc(C(=O)Nc4ccc(CN5CCS(=O)(=O)CC5)cc4)cc3)cc2)[nH]1)c1ccccc1 [Example 2, Tert-butyl N-[(1R)-2-[(2S)-2-[5-[4-[4-[[4-[(1,1-dioxo-1,4-thiazinan-4-yl)methyl]phenyl]carbamoyl]phenyl]phenyl]-1H-imidazol-2-yl]pyrrolidin-1-yl]-2-oxo-1-phenyl-ethyl]carbamate]	0.02	0.0204	56	56.2
COC(=O)N[C@H](C(=O)N1CCC[C@@H]1c1ncc(-c2ccc(-c3ccc(C(=O)Nc4ccc(CN5CCS(=O)(=O)CC5)cc4)cc3)cc2)[nH]1)C(C)C [Example 20, Methyl N-[(1S)-1-[(2R)-2-[5-[4-[4-[[4-[(1,1-dioxo-1,4-thiazinan-4-yl)methyl]phenyl]carbamoyl]phenyl]phenyl]-1H-imidazol-2-yl]pyrrolidine-1-carbonyl]-2-methyl-propyl]carbamate]	319	316	1470	1480
CCN(CC)[C@@H](C(=O)N1CCC[C@H]1c1ncc(-c2ccc(-c3ccc(C(=O)Nc4ccc(CN5CCS(=O)(=O)CC5)cc4)cc3)cc2)[nH]1)c1ccccc1 [Example 8, 4-[4-[2-[(2S)-1-[(2R)-2-(diethylamino)-2-phenyl-acetyl]pyrrolidin-2-yl]-1H-imidazol-5-yl]phenyl]-N-[4-[(1,1-dioxo-1,4-thiazinan-4-yl)methyl]phenyl]benzamide]	0.05	0.0468	4.75	4.79
COC(=O)N[C@H](C(=O)N1CCC[C@H]1c1ncc(-c2ccc(-c3ccc(C(=O)Nc4ccc(CN5CCS(=O)(=O)CC5)cc4)cc3)cc2)[nH]1)c1ccccc1 [Example 6, Methyl N-[(1S)-2-[(2S)-2-[5-[4-[4-[[4-[(1,1-dioxo-1,4-thiazinan-4-yl)methyl]phenyl]carbamoyl]phenyl]phenyl]-1H-imidazol-2-yl]pyrrolidin-1-yl]-2-oxo-1-phenyl-ethyl]carbamate]	0.04	0.0417	33.3	33.1
CC[C@H](C)[C@H](NC(=O)OC)C(=O)N1CCC[C@H]1c1ncc(-c2ccc(-c3ccc(C(=O)Nc4ccc(CN5CCS(=O)(=O)CC5)cc4)cc3)cc2)[nH]1 [Example 16, Methyl N-[(1S,2S)-1-[(2S)-2-[5-[4-[4-[[4-[(1,1-dioxo-1,4-thiazinan-4-yl)methyl]phenyl]carbamoyl]phenyl]phenyl]-1H-imidazol-2-yl]pyrrolidine-1-carbonyl]-2-methyl-butyl]carbamate]	0.13	0.132	8.39	8.32
CN(C)[C@@H](C(=O)N1CCC[C@H]1c1ncc(-c2ccc(-c3ccc(C(=O)Nc4ccc(CN5CCS(=O)(=O)CC5)cc4)cc3)cc2)[nH]1)c1ccccc1 [Example 9, 4-[4-[2-[(2S)-1-[(2R)-2-(dimethylamino)-2-phenyl-acetyl]pyrrolidin-2-yl]-1H-imidazol-5-yl]phenyl]-N-[4-[(1,1-dioxo-1,4-thiazinan-4-yl)methyl]phenyl]benzamide]	0.1	0.1	13.2	13.2
COC(=O)N[C@H](C(=O)N1CCC[C@H]1c1ncc(-c2ccc(-c3ccc(C(=O)Nc4ccc(CN5CCS(=O)(=O)CC5)cc4)cc3)cc2)[nH]1)C(C)C [Example 3, Methyl N-[(1S)-1-[(2S)-2-[5-[4-[4-[[4-[(1,1-dioxo-1,4-thiazinan-4-yl)methyl]phenyl]carbamoyl]phenyl]phenyl]-1H-imidazol-2-yl]pyrrolidine-1-carbonyl]-2-methyl-propyl]carbamate]	0.34	0.339	6.46	6.46
CCCS(=O)(=O)N1CCN(Cc2ccc(NC(=O)c3ccc(-c4ccc(-c5cnc([C@@H]6CCCN6C(=O)[C@@H](NC(=O)OC)C(C)C)[nH]5)cc4)cc3)cc2)CC1 [Example 40, Methyl N-[(1S)-2-methyl-1-[(2S)-2-[5-[4-[4-[[4-[(4-propylsulfonylpiperazin-1-yl)methyl]phenyl]carbamoyl]phenyl]phenyl]-1H-imidazol-2-yl]pyrrolidine-1-carbonyl]propyl]carbamate]	0.1	0.1	42.6	42.7
COC(=O)N[C@H](C(=O)N1CCC[C@H]1c1ncc(-c2ccc(-c3ccc(C(=O)Nc4ccc(CN5CCS(=O)(=O)CC5)cc4)cc3)cc2)[nH]1)C(C)(C)C [Example 5, Methyl N-[(1S)-1-[(2S)-2-[5-[4-[4-[[4-[(1,1-dioxo-1,4-thiazinan-4-yl)methyl]phenyl]carbamoyl]phenyl]phenyl]-1H-imidazol-2-yl]pyrrolidine-1-carbonyl]-2,2-dimethyl-propyl]carbamate]	0.73	0.741	33.1	33.1
COC(=O)N[C@@H](CC(C)C)C(=O)N1CCC[C@H]1c1ncc(-c2ccc(-c3ccc(C(=O)Nc4ccc(CN5CCS(=O)(=O)CC5)cc4)cc3)cc2)[nH]1 [Example 14, Methyl N-[(1S)-1-[(2S)-2-[5-[4-[4-[[4-[(1,1-dioxo-1,4-thiazinan-4-yl)methyl]phenyl]carbamoyl]phenyl]phenyl]-1H-imidazol-2-yl]pyrrolidine-1-carbonyl]-3-methyl-butyl]carbamate]	0.36	0.355	15.7	15.8
COC(=O)N[C@@H](C(=O)N1CCC[C@H]1c1ncc(-c2ccc(-c3ccc(C(=O)Nc4ccc(CN5CCS(=O)(=O)CC5)cc4)cc3)cc2)[nH]1)c1ccccc1 [Example 7, Methyl N-[(1R)-2-[(2S)-2-[5-[4-[4-[[4-[(1,1-dioxo-1,4-thiazinan-4-yl)methyl]phenyl]carbamoyl]phenyl]phenyl]-1H-imidazol-2-yl]pyrrolidin-1-yl]-2-oxo-1-phenyl-ethyl]carbamate]	0.05	0.0468	32	32.4
COC(=O)N[C@H](C(=O)N1CCC[C@H]1c1ncc(-c2ccc(-c3ccc(C(=O)Nc4ccc(CN5CCS(=O)(=O)CC5)cc4)cc3)c(C)c2)[nH]1)C(C)C [Example 54, Methyl N-[(1S)-1-[(2S)-2-[5-[4-[4-[[4-[(1,1-dioxo-1,4-thiazinan-4-yl)methyl]phenyl]carbamoyl]phenyl]-3-methyl-phenyl]-1H-imidazol-2-yl]pyrrolidine-1-carbonyl]-2-methyl-propyl]carbamate]	0.21	0.209	9.38	9.33
COC(=O)N[C@H](C(=O)N1CCOC[C@H]1c1ncc(-c2ccc(-c3ccc(C(=O)Nc4ccc(CN5CCS(=O)(=O)CC5)cc4)cc3)cc2)[nH]1)c1ccccc1 [Example 47, Methyl N-[(1S)-2-[(3R)-3-[5-[4-[4-[[4-[(1,1-dioxo-1,4-thiazinan-4-yl)methyl]phenyl]carbamoyl]phenyl]phenyl]-1H-imidazol-2-yl]morpholin-4-yl]-2-oxo-1-phenyl-ethyl]carbamate]	0.28	0.275	73.3	74.1

From patent publication US20100215618A1, “NOVEL COMPOUNDS - 644” (Arrow Therapeutics Limited, priority 2009, published 2010)
